Reference: US20080261955A1, “Use of Pharmaceutical Compositions of Lofepramine for the Treatment of Adhd, Cfs, Fm and Depression” (priority 2004, published 2008)
Read-outs that look alike come from different tables or passages of the source.

Tests used:
ECG interval = conditions: rats infused with the antidepressant; cited from earlier work
ADHD [1] = assay: Two large well-controlled studies of atomoxetine, CAARS scores; format: in vivo, human; conditions: overall
From the text: In the second study, these improvements were 30.1% vs. 19.6%, respectively. Overall these two studies have indicated a placebo response of about 20% and difference between active and placebo of about 10%. Moreover, atomoxetine is not a stimulant, a point that provides an effective marketing tool for this drug.

ADHD [2] = conditions: cited from earlier work
[3] = system: ADD (as defined in DSM III); conditions: 31 patients treated with 4.6 mg/kg, children and adolescents; cited from earlier work
[4] = fatal poisoning / overdose; cited from earlier work
[5] = desipramine treatment; cited from earlier work
hyperactivity (ADHD) = conditions: doses as low as 75 mg/day; cited from earlier work
DSM-IV ADHD = assay: Example 1: case reports of ADHD patients on lofepramine; format: in vivo, human; conditions: for behaviour: child; for general behaviour and concentration: person
Experimental: Patient is a person with a diagnosis of DSM-IV ADHD. Their education was severely impacted by an inability to sustain attention for any length of time and they were also very disruptive in class. Their inability to sustain attention was causing difficulty at work. They were referred by their primary care physician. They were commenced on lofepramine 70 mg twice daily. […] The dose of lofepramine was increased to 70 mg three times daily. […] Within 48 hours their concentration deteriorated and they were once again in trouble at work. A week later the medication was recommenced and they have now remained well for approximately 4 months. They are performing effectively at work and their parents are happy with the situation. A child had been on methylphenidate for 2 years which was prescribed for ADHD characterised by poor concentration and impulsive behaviour. They stopped taking the medication and deteriorated. When they attended the clinic they were commenced on lofepramine 70 mg twice daily. […] This has been sustained for 4 months.

dopamine D2 receptor = dopamine D2 receptor (Homo sapiens, UniProt P14416); assay: Activity at the dopamine D2 receptor
dopamine D2 receptor, sequence (P14416 whole entry, species assumed): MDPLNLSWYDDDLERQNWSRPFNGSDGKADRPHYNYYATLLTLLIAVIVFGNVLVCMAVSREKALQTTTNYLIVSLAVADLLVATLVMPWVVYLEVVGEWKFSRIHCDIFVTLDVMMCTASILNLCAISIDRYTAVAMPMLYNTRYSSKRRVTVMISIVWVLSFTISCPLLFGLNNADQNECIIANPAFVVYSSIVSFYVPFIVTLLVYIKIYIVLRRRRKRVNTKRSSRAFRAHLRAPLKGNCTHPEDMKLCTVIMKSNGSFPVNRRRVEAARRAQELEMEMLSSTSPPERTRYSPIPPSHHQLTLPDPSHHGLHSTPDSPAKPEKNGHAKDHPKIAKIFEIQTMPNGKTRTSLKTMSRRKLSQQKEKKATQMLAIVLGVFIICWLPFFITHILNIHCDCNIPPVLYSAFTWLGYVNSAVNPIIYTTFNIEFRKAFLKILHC

[6] = system: noradrenaline reuptake versus serotonin (5HT) reuptake; assay: NA:5HT relative potencies based on Ki data (Bolden-Watson and Richelson); format: biochemical; conditions: basis not stated
From the text: The selectivity a drug for various receptors may be compared by use of comparative Ki's and not comparative IC 50 values. (Bolden-Watson, C and Richelson, E., Life Sci, (52), 1993, 1023-1029), which is hereby incorporated by reference.

Chronic Fatigue Syndrome = assay: Example 3: lofepramine in Chronic Fatigue Syndrome patients, cross-over design; format: in vivo, human; conditions: 44 patients, doses up to 210 mg/day over 26 weeks
Experimental: Forty-four patients meeting the criteria for Chronic Fatigue Syndrome were recruited in a cross-over design. […] Patients were administered lofepramine at doses up to 210 mg/day over the 26 weeks of the study. Patients were assessed using the FibroFatigue Scale (interview scale) and the CDR battery of cognitive tests (computer based assessment of cognition). Other assessments included HADS and Clinical Global Improvement (CGI). Four CDR assessments and 9 Fibrofatigue assessments were carried out.

[7] = system: Hypothalamic-Pituitary-Adrenal axis; assay: HPA axis activity in CFS; format: in vivo, human; conditions: along with symptomatic relief
From the text: While not being bound by any one mechanisms of action, previous work by one of the co-inventors here, has supported the evidence that there is Hypothalamic-Pituitary-Adrenal axis under activity in CFS patients. (Scott […] and […]; Acta Psychiatr Scand 1998 June 97: 450-7).

[8] = toxic levels similar to that found in the SSRI's
[9] = system: serotonin synthesis in the brain; assay: Serotonin synthesis in the brain
ADHD [10] = assay: Example 2: lofepramine versus placebo in adult patients with ADHD (CAARS); format: in vivo, human; conditions: 20 adult patients, oral 140 to 280 mg/day, 3 months
Experimental: A study was carried out to access the efficacy of lofepramine compared to placebo in 20 adult patients with ADHD at a single study centre. Active treatment was for 3 months. Patients with DSM-IV diagnosis of ADHD were recruited. Patients were assessed using the patient-rated Connors Adult ADH Rating Scales (CAARS). Initially, there was a single blind placebo period between day 0 and week 3, and patients who responded to placebo were withdrawn. Oral administration of lofepramine (140 mg/day) was commenced from week 3 onwards. Patients showing little response to this dose and tolerable side effects were titrated upwards to 210 mg/day and then to 280 mg/day.

Sedation = conditions: in vivo

CN(C)CCC=C1c2ccccc2CCc2ccccc21 [amitriptyline]
effect on ECG interval (ECG interval): prolong the ECG interval

CNCC[C@@H](Oc1ccccc1C)c1ccccc1 [atomoxetine]
difference between active and placebo in reduction of CAARS scores (ADHD [1]): about 10% | mean reduction of CAARS scores (ADHD [2]; first study, placebo 18.1%): 28.3% | mean reduction of CAARS scores (ADHD [2]; second study, placebo 19.6%): 30.1%

CNCCCN1c2ccccc2CCc2ccccc21 [desipramine]
patients with a significant response [3]: around 70% | fatalities per million prescriptions [4]: 200.9 per million prescriptions | effect on ECG interval (ECG interval): prolong the ECG interval | diastolic blood pressure, heart rate and ECG conductance [5]: asymptomatic and generally small increases

CN(C)CCCN1c2ccccc2CCc2ccccc21 [imipramine]
effect on ECG interval (ECG interval): prolong the ECG interval | time to begin to reduce hyperactivity (hyperactivity (ADHD)): 3 to 10 days

CN(CCCN1c2ccccc2CCc2ccccc21)CC(=O)c1ccc(Cl)cc1 [lofepramine]
behaviour (DSM-IV ADHD; 70 mg three times daily, sustained for 4 months): major improvement | behaviour (DSM-IV ADHD; 70 mg twice daily): No immediate improvement | side-effects (DSM-IV ADHD; patient report): no side-effects | general behaviour and concentration (DSM-IV ADHD; 70 mg three times daily, sustained for 3 months): continued improvement | general behaviour and concentration (DSM-IV ADHD; 70 mg twice daily, after 1 week): significant improvement | activity at the D2 receptor (dopamine D2 receptor): potent activity | NA:5HT ratio relative to that of desipramine [6]: about four | NE:5-HT ratio compared with milnacipran [6]: higher than that of milnacipran | fatalities per million prescriptions [4]: 1.3 per million prescriptions | FibroFatigue Scale, CDR cognitive tests, HADS and CGI (Chronic Fatigue Syndrome): significant improvement on all scales | effect on ECG interval (ECG interval): does not | HPA activity [7]: induces upregulation of HPA activity | cardiotoxicity [8]: very low cardiotoxicity | serotonin synthesis in the brain [9]: up-regulate serotonin synthesis in the brain | CAARS scores versus placebo (ADHD [10]): significant benefit over placebo | sedation (Sedation): does not induce sedation

COc1ccc(C(CN(C)C)C2(O)CCCCC2)cc1 (stereo not drawn) [venlafaxine]
fatalities per million prescriptions [4]: 13.2 per million prescriptions
